Experimental data from PubChem BioAssay AID735 (The Scripps Research Institute Molecular Screening Center, 2007).
The source made the active and inactive calls. How the calls were made is not given here.

Target: Collagenase 3 (Homo sapiens) (UniProt P45452)
Test: MMP13 activity inhibition curves – biochemical, dose response (AID 735)
Details: recombinant MMP13 enzymatic activity assay

SMILES | IC50
COc1cc(-n2nc(C)c3c2OC(N)=C(C#N)C3c2ccccc2)c(Cl)c(Br)c1O (configuration not stated) | > 39.8 µM (inactive)
CCOC(=O)/C(C#N)=C1/C=Nc2ccccc2N1 | inactive
